One series concerns the target T1, human H4 receptor (Homo sapiens, UniProt Q9H3N8).
T1 construct: expressed in transfected cells; host or cells: HEKf cells transduced with baculovirus
The series is described as follows: H4 Antagonist Functional cAMP Gi Assay. Type of series: cell-based. As to conditions: H4 antagonist activity, read-out: Human H4 CAMP fpKb (converted). The protocol: H4 Antagonist Functional cAMP Gi Assay
HEKf cells were infected overnight using baculovirus expressing the human H4 receptor, then centrifuged at 1,200 rpm for 5 min, frozen in cell freezing medium (Sigma) and stored at −150° C. On the day of assay, the cells were thawed and resuspended in HBSS with 500 nM IBMX to achieve a density of 1,500 cells/well. H4 ligands were prepared in DMSO and stamped by LabCyte ECHO acoustic dispensing at 25 nL in low volume plates. 10 μL/well cells were plated in the presence of 1 μM forskolin, subjected to centrifugation at 1,200 rpm for 1 min and incubated for 30 min prior to addition of Cisbio cAMP detection reagents to a total volume 20 μL/well. For the antagonist assay, cells were pre-incubated with H4 antagonist ligands for 30 min prior to addition of EC80 concentration of histamine and a further 30 min incubation. Following detection reagent addition and shaking at room temperature for 60 min, cAMP accumulation was measured using HTRF on a PheraStar plate reader. EC50 values were generated using a 4-parameter logistical fit equation to quantify agonist potencies. Functional antagonist affinity values were generated using the Cheng-Prusoff equation to calculate a pKb value using the antagonist assay data.

The next series concerns the target hERG (Homo sapiens, UniProt Q12809). Description: hERG Assay (QPatch automated patch clamp; single-concentration assay at 30 μM and pIC50 assay). As to conditions: for inhibition at 30 µM: human, CHO cells stably expressing hERG. For orientation: hERG is a cardiac potassium channel; its block is linked to QT prolongation.

Structures can show the parent of a compound that is named as a salt. Where only a bound is given, the exact number is not on record here.

T1 sequence (Q9H3N8 whole entry): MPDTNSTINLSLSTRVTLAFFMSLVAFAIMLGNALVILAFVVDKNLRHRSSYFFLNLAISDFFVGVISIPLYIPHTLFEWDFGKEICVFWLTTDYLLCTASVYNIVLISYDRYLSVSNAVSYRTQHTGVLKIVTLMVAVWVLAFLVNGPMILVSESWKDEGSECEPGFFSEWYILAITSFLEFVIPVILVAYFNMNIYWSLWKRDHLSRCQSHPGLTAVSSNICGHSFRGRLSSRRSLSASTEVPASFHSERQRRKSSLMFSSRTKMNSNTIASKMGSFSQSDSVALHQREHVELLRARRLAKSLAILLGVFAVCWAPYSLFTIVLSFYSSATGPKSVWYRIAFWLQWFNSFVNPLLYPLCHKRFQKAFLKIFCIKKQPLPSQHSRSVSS
Chain of hERG (Q12809 whole entry): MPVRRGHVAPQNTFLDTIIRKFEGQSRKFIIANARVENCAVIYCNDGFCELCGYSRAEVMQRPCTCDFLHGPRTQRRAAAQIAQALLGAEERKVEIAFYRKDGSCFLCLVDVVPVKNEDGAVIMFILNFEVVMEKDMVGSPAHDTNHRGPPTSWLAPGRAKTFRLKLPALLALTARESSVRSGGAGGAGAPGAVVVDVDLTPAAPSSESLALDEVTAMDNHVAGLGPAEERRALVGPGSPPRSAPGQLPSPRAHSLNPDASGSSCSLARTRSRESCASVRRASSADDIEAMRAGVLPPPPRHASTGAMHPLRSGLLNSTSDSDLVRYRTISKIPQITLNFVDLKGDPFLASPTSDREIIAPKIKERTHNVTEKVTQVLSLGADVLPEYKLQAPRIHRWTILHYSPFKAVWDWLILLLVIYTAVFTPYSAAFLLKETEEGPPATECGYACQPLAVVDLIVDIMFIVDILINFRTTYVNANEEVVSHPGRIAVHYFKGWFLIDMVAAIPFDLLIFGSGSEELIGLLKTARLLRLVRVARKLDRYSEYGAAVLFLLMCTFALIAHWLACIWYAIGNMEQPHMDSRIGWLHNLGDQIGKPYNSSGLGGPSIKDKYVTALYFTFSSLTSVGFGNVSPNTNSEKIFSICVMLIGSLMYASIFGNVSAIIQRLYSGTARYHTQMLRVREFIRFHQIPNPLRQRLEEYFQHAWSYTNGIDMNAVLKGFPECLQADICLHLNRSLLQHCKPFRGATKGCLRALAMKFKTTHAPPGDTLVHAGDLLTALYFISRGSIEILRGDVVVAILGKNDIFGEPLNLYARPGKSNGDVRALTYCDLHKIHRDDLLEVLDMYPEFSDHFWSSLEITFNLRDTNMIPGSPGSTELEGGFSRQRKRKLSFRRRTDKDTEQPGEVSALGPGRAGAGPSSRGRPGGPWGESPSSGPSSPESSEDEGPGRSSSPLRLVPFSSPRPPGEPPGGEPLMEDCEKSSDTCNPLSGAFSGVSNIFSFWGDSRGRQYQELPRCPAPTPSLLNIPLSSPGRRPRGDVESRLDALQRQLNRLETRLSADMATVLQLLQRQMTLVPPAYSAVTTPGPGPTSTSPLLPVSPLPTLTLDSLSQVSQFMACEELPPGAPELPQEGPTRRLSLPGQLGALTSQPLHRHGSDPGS

Regarding `CN[C@@H]1CCN(c2cc(-c3[nH]nc4c3CCC4)nc(N)n2)C1` [7.4], the Kb on human H4 receptor is 0.00631 µM. In addition, 30 µM produced 16% inhibition against hERG.

Regarding `CN[C@@H]1CCN(c2cc(-c3ccn[nH]3)nc(N)n2)C1` [Example 1-1, (R)-4-(3-(methylamino)pyrrolidin-1-yl)-6-(1H-pyrazol-5-yl)pyrimidin-2-amine], the Kb at human H4 receptor was 0.0501 µM. Besides, the IC50 (in general, the concentration that gives 50% inhibition) at hERG was at least 100 µM.

For `CN[C@@H]1CCN(c2cc(-c3ccnn3C)nc(N)n2)C1` [Example 1-2, (R)-4-(1-methyl-1H-pyrazol-5-yl)-6-(3-(methylamino)pyrrolidin-1-yl)pyrimidin-2-amine dihydrochloride], the Kb at human H4 receptor is 0.794 µM.

Turning to `CN[C@@H]1CCN(c2cc(-c3ccn(C)n3)nc(N)n2)C1` [Example 2-1, (R)-4-(1-methyl-1H-pyrazol-3-yl)-6-(3-(methylamino)pyrrolidin-1-yl)pyrimidin-2-amine], on human H4 receptor, the Kb was 0.0398 µM. In addition, the 50% inhibitory concentration (IC50) on hERG was at least 100 µM.

As for `CN[C@@H]1CCN(c2cc(-c3ccn(C(F)F)n3)nc(N)n2)C1` [Example 2-2, (R)-4-(1-(difluoromethyl)-1H-pyrazol-3-yl)-6-(3-(methylamino)pyrrolidin-1-yl)pyrimidin-2-amine dihydrochloride], the Kb on human H4 receptor is 0.0501 µM. Also, the inhibition (usually the change of the read-out against control, counted positive when it falls) at 30 µM on hERG was found to be 99%.

As for `CN[C@@H]1CCN(c2cc(-c3cc(C)n[nH]3)nc(N)n2)C1` [Example 3-1, (R)-4-(3-methyl-1H-pyrazol-5-yl)-6-(3-(methylamino)pyrrolidin-1-yl)pyrimidin-2-amine], the Kb at human H4 receptor is 0.00794 µM. In addition, the inhibition at 30 µM against hERG was below 1%.

For `CN[C@@H]1CCN(c2cc(-c3cc(C4CC4)n[nH]3)nc(N)n2)C1` [Example 3-2, dihydrochloride], the Kb at human H4 receptor was 0.1 µM. In addition, the inhibition at 30 µM at hERG worked out at 39%.

For `CN[C@@H]1CCN(c2cc(-c3cc(C(F)F)n[nH]3)nc(N)n2)C1` [Example 3-3, (R)-4-(3-(difluoromethyl)-1H-pyrazol-5-yl)-6-(3-(methylamino)pyrrolidin-1-yl)pyrimidin-2-amine], at human H4 receptor, the Kb was 0.0501 µM.

In the case of `CN[C@@H]1CCN(c2cc(-c3cc(C(F)(F)F)n[nH]3)nc(N)n2)C1` [Example 3-4, (R)-4-(3-(methylamino)pyrrolidin-1-yl)-6-(3-(trifluoromethyl)-1H-pyrazol-5-yl)pyrimidin-2-amine ditrifluoroacetate salt], the Kb on human H4 receptor is 0.0631 µM. For the same compound, 30 µM produced 45% inhibition on hERG.

Consider `Nc1nc(-c2cc(C(F)(F)F)n[nH]2)cc(N2CC[C@@H](N)C2)n1` [Example 3-5], for which the Kb on human H4 receptor is 0.1 µM. At hERG, this compound registered an inhibition at 30 µM of 19%.

As to `CCc1cn[nH]c1-c1cc(N2CC[C@@H](NC)C2)nc(N)n1` [Example 4-2, (R)-4-(4-ethyl-1H-pyrazol-5-yl)-6-(3-(methylamino)pyrrolidin-1-yl)pyrimidin-2-amine], the Kb at human H4 receptor was 0.01 µM. This compound registered an inhibition at 30 µM against hERG of 25%.

Consider `CN[C@@H]1CCN(c2cc(-c3[nH]ncc3OC)nc(N)n2)C1` [Example 4-4, (R)-4-(4-methoxy-1H-pyrazol-5-yl)-6-(3-(methylamino)pyrrolidin-1-yl)pyrimidin-2-amine], for which the Kb on human H4 receptor was 0.0794 µM. This compound also gave an inhibition at 30 µM against hERG of 14%.

On to `CN[C@@H]1CCN(c2cc(-c3cc(C)n(C)n3)nc(N)n2)C1` [Example 5-1, diformate], for which, at human H4 receptor, the Kb was 0.398 µM.

Consider `CN[C@@H]1CCN(c2cc(-c3cc(C)n(C(F)F)n3)nc(N)n2)C1` [Example 5-2], for which, at human H4 receptor, the Kb was 0.398 µM. The compound also yielded an inhibition at 30 µM against hERG of 71%.

As for `CN[C@@H]1CCN(c2cc(-c3nn(C)cc3C)nc(N)n2)C1` [Example 6-1], the Kb on human H4 receptor is 0.02 µM. The compound also had an inhibition at 30 µM against hERG of 12%.

For `CN[C@@H]1CCN(c2cc(-c3nn(C(F)F)cc3C)nc(N)n2)C1` [Example 6-2], the Kb at human H4 receptor was 0.0398 µM. On hERG, this compound returned an inhibition at 30 µM of 94%.

Regarding `CN[C@@H]1CCN(c2cc(-c3[nH]nc(C)c3Cl)nc(N)n2)C1` [Example 7-2], the Kb on human H4 receptor was 0.000251 µM. 30 µM produced 39% inhibition against hERG.

As for `Cc1n[nH]c(-c2cc(N3CC[C@@H](N)C3)nc(N)n2)c1C` [Example 7-6], the Kb on human H4 receptor was 0.398 µM.

`Cc1n[nH]c(-c2cc(N3CC[C@@H](N)C3)nc(N)n2)c1Cl` [Example 7-7]: the Kb on human H4 receptor is 0.002 µM. The compound also showed an inhibition at 30 µM against hERG of 30%.

On to `CCc1n[nH]c(-c2cc(N3CC[C@@H](N)C3)nc(N)n2)c1C` [Example 7-8], for which the Kb on human H4 receptor is 0.126 µM.

Regarding `CN[C@@H]1CCN(c2cc(-c3cn[nH]c3)nc(N)n2)C1` [Example 8-1], at human H4 receptor, the Kb was 0.1 µM. This compound also showed an IC50 against hERG of at least 100 µM.

As to `CCn1cc(-c2cc(N3CC[C@@H](NC)C3)nc(N)n2)cn1` [Example 8-3, dihydrochloride], on human H4 receptor, the Kb is 0.0398 µM. On hERG, testing at 30 µM gave an inhibition of 12%.

Take `CN[C@@H]1CCN(c2cc(-c3cnn(C4CCC4)c3)nc(N)n2)C1` [Example 8-5]: the Kb at human H4 receptor was 0.251 µM. The compound further yielded an inhibition at 30 µM against hERG of 77%.

Consider `CN[C@@H]1CCN(c2cc(-c3cnn(C(F)F)c3)nc(N)n2)C1` [Example 8-6], for which the Kb on human H4 receptor was 0.02 µM. For the same compound, 6.31 µM corresponded to half-maximal inhibition against hERG (IC50).

Consider `CN[C@@H]1CCN(c2cc(-c3cnn(CC(F)(F)F)c3)nc(N)n2)C1` [Example 8-8, dihydrochloride], for which the Kb on human H4 receptor was 0.398 µM. This compound gave an inhibition at 30 µM at hERG of 44%.

For `CN[C@@H]1CCN(c2cc(-c3cnn(CCO)c3)nc(N)n2)C1` [Example 8-9], the Kb on human H4 receptor was 0.631 µM.

In the case of `CN[C@@H]1CCN(c2cc(-c3cnn(C4COC4)c3)nc(N)n2)C1` [Example 8-11], the Kb at human H4 receptor was 0.501 µM.

As for `CN[C@@H]1CCN(c2cc(-c3cnn(CCC#N)c3)nc(N)n2)C1` [Example 8-12], the Kb at human H4 receptor was 0.794 µM.

For the compound `CN[C@@H]1CCN(c2cc(-c3cnn(CC#N)c3)nc(N)n2)C1` [Example 8-13], at human H4 receptor, the Kb was 0.2 µM.

As to `CCOC(=O)N1CCCC(n2cc(-c3cc(N4CC[C@@H](NC)C4)nc(N)n3)cn2)C1` (some centres unmarked) [Example 8-14], the Kb on human H4 receptor was 0.794 µM.

For the compound `Nc1nc(-c2cnn(C(F)(F)F)c2)cc(N2CC[C@@H](N)C2)n1` [Example 8-15, dihydrochloride], the Kb on human H4 receptor was 0.00251 µM. On hERG, this compound showed an IC50 of at least 100 µM and an inhibition at 30 µM of 44%.

Turning to `CCn1cc(-c2cc(N3CC[C@@H](N)C3)nc(N)n2)cn1` [Example 8-17, dihydrochloride], on human H4 receptor, the Kb is 0.0501 µM. Moreover, 30 µM produced 10% inhibition against hERG.

With `Nc1nc(-c2cnn(CC(F)(F)F)c2)cc(N2CC[C@@H](N)C2)n1` [Example 8-18, dihydrochloride], at human H4 receptor, the Kb was 0.501 µM.

As for `CN[C@@H]1CCN(c2cc(-c3cn[nH]c3C(F)F)nc(N)n2)C1` [Example 9-5], the Kb on human H4 receptor was 0.0398 µM.

`CN[C@@H]1CCN(c2cc(-c3cn(C)nc3C#N)nc(N)n2)C1` [Example 11-5]: the Kb on human H4 receptor was 0.794 µM.

For the compound `CNC1CN(c2cc(-c3[nH]ncc3C)nc(N)n2)C1` [Example 16-3, ditrifluoroacetate], the Kb on human H4 receptor was 0.00794 µM.

In the case of `Cc1cn[nH]c1-c1cc(N2CC(N)C2)nc(N)n1` [Example 16-4, ditrifluoroacetate], on human H4 receptor, the Kb was 0.398 µM.

Regarding `CNC1(C)CN(c2cc(-c3[nH]ncc3C)nc(N)n2)C1` [Example 16-5, ditrifluoroacetate], the Kb at human H4 receptor is 0.02 µM.

With `Cc1cn[nH]c1-c1cc(N2CC3CCNC3C2)nc(N)n1` (centres unmarked) [Example 16-6], the Kb on human H4 receptor is 0.631 µM.

The values are drawn from patent publication US12234227B2, “Pyrazole derivatives as H4 antagonist compounds” (NXERA PHARMA UK LIMITED, priority 2018, dated 2025).
